In test [1] the target is T1, Prostaglandin G/H synthase 1 (Bos taurus, UniProt O62664).
T1 sequence (O62664 whole entry): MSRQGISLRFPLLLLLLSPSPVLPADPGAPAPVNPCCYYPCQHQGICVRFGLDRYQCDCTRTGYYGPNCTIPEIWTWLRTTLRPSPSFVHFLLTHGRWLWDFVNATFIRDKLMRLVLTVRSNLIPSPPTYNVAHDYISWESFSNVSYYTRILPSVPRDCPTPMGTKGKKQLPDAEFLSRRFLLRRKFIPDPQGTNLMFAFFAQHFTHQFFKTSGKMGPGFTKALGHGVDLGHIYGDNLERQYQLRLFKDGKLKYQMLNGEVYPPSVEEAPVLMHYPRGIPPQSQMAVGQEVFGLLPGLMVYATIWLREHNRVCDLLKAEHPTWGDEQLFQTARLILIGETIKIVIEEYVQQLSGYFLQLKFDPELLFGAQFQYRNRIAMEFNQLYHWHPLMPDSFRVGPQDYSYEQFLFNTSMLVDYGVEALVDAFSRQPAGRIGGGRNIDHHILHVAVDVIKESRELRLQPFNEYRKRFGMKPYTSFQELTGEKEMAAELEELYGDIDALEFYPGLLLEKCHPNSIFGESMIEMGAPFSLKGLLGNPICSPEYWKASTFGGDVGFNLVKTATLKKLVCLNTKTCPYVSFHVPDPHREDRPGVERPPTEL
Briefly: Inhibition of bovine seminal microsomal COX1 assessed as PGE2 production preincubated for 10 mins.

Test [2] concerns the target T1, Prostaglandin G/H synthase 1. As to the kind of experiment: Inhibition of bovine seminal microsomal COX1 assessed as PGE2 production.

Take `Oc1cc(O)c2c(c1)O[C@H](c1ccc(O)c(O)c1)[C@@H](O)C2` [CIANIDANOL]: the IC50 was determined as 279 µM in test [1] and 183 µM in test [2].

Consider `CS(=O)(=O)Nc1ccc([N+](=O)[O-])cc1OC1CCCCC1` [NS-398], for which the IC50 in test [1] is […].

Consider `C[C@@H]1O[C@@H](Oc2c(-c3ccc(O)c(O)c3)oc3cc(O)cc(O)c3c2=O)[C@H](O)[C@H](O)[C@H]1O` [QUERCITRIN], for which the IC50 in test [1] and in test [2] was over 2000 µM each time.

For orientation: IC50 means the point on the concentration scale where inhibition reaches its midpoint.

The record behind these values is ChEMBL document CHEMBL1158843, “Development of a radiochemical cyclooxygenase-1 and -2 in vitro assay for identification of natural products as inhibitors of prostaglandin biosynthesis” (J Nat Prod, 1998).
